In publication PMC8496086 (RSC Chemical Biology, 2021):

Experiments:
[1] = tested on: A549 lung carcinoma cells; test: MNA production in A549 cells; assay type: cell-based, human; details: 1 and 10 μM compound, 100 μM nicotinamide, 10 μM SAM, 1 h
[2] = tested on: human aortic endothelial cells (HAEC); test: MNA production in HAEC cells; assay type: cell-based; details: 1 and 10 μM compound, 100 μM nicotinamide, 10 μM SAM, 3 hours
NNMT = details: read-out: reported IC50 value; cited from earlier work

## CNc1ccc(C(N)=O)cn1 [Peptide 6-MANA, 6-methylamino-nicotinamide]
[1]
  effect on concentration of MNA: significant reduction of MNA concentration
[2]
  effect on concentration of MNA: significant reduction of MNA concentration
NNMT
  IC50: 588 ± 75 nM
